Assay results taken from patent publication US20200138802A1, “Aggressive Lipid Lowering Therapy in Coronary Artery Disease” (Kowa Company, Ltd., priority 2018, published 2020).

Columns and labels:
[1] = Randomized open-label phase 4 trial of pitavastatin 4 mg/day versus 1 mg/day in Japanese patients with stable coronary artery disease; type: in vivo, human
Protocol: This study was a prospective, multicenter, randomized, open-label, blinded-endpoint, physician-initiated phase 4 trial designed to investigate whether high-dose statin therapy could reduce CV events in patients with stable CAD as compared with low-dose statin therapy. We hypothesized that aggressive lipid lowering treatment with pitavastatin 4 mg/day would reduce the incidence of the composite endpoint comprised of CV death, non-fatal myocardial infarction (MI), non-fatal ischemic stroke, and unstable angina requiring emergency hospitalization. The control group received pitavastatin 1 mg/day.
Men and women aged 20 to 80 years with clinically evident stable CAD and elevated LDL-C were eligible for this study. CAD was defined as 1) previous ACS, such as acute myocardial infarction or unstable angina; 2) a previous coronary revascularization procedure (PCI or coronary artery bypass grafting (“CABG”)); or 3) atherosclerotic CAD detected by coronary artery angiography with at least 75% stenosis in major epicardial coronary arteries (American Heart Association classification). (30) Patients with elevated LDL-C at entry were defined as (1) patients not receiving chronic lipid-lowering therapy with LDL-C≥140 mg/dL, (2) patients with LDL-C≥100 mg/dL and considered by the attending physician to need lipid-lowering therapy, or (3) patients being treated with lipid-lowering therapy.
Exclusion criteria included (1) any planned coronary revascularization procedure, (2) active malignancy, (3) contraindication for pitavastatin (hypersensitivity to pitavastatin, severe liver disease or hepatic dysfunction, concurrent cyclosporine use, or suspected or confirmed pregnancy or current breastfeeding), (4) severe congestive heart failure (ejection fraction<30% or NYHA class≥3), (5) current hemodialysis, (6) familial hypercholesterolemia, (7) current participation in another clinical trial, (8) current use of any prohibited drug (lipid-lowering drug other than pitavastatin) that could not be discontinued during the study, and (9) any other finding that would make the patient unsuitable for this study in the opinion of the investigators.
Participants were recruited at 733 hospitals in Japan. During screening visits, informed consent and baseline medical history were obtained, and a clinical examination and laboratory testing were performed. Blood samples were collected to determine fasting lipid levels and the patient's standard clinical profile. After discontinuation of all previous lipid-lowering therapies, all eligible patients started receiving treatment with pitavastatin 1 mg/day on an open-label basis for at least 1 month (run-in period). At the end of the run-in period (week 0), those patients with LDL-C levels below 120 mg/dL, measured by a central laboratory using Friedwald's formula, were eligible for randomization. Patients with prior ACS or coronary revascularization could be randomized beyond 3 months after the index event. Randomization was not allowed for patients with poor adherence (less than 50%) for the study drug during the run-in period or for patients with the primary endpoint events during the run-in period.
Patients were randomized in a 1:1 ratio to either pitavastatin 4 mg or pitavastatin 1 mg once daily. Randomized treatment assignment was stratified by 5 factors: 1) institution, 2) prior statin use, 3) age (<65 or ≥65), 4) diabetes, and 5) sex. Patients were to be followed for 3 years, and study visits were scheduled at 6 months for the first visit and every year thereafter. At each visit, information on vital signs, clinical endpoints, adverse events, and concurrent medication was collected. In addition, physical examinations and electrocardiograms were performed and blood specimens were collected at 6 months and every 12 months thereafter for lipid and other laboratory tests. […]

[2] = 4 mg of pitavastatin; cited from earlier work

O=C(O)C[C@H](O)C[C@H](O)/C=C/c1c(C2CC2)nc2ccccc2c1-c1ccc(F)cc1 [pitavastatin]
incidence rates of individual CV events: death from any cause, myocardial infarction, and coronary revascularization results ([1]; 1 mg and 4 mg pitavastatin groups, FIG. 8): positive | LDL-C ([1]; patients converted from 1 mg dose to 4 mg dose of pitavastatin, stable CAD, FIG. 2): statistically significant reduction | HDL-C ([1]; patients converted from 1 mg dose to 4 mg dose of pitavastatin, stable CAD, FIG. 3): numerically superior increase | TG ([1]; patients converted from 1 mg dose to 4 mg dose of pitavastatin, stable CAD, FIG. 4): statistically significant reduction | hs-CGP ([1]; patients converted from 1 mg dose to 4 mg dose of pitavastatin, stable CAD, FIG. 5): statistically significant reduction | primary clinical endpoint (composite of CV death, MI, ischemic stroke and UA) ([1]; patients converted from 1 mg dose to 4 mg dose of pitavastatin, stable CAD, FIG. 6): statistically significant reduction | secondary clinical endpoint (primary endpoint+coronary revascularization) ([1]; patients converted from 1 mg dose to 4 mg dose of pitavastatin, stable CAD, FIG. 7): statistically significant reduction | effect of LDL-C status (≥95 mg/dL or <95 mg/dL) on primary endpoint incidence rates ([1]; subgroup analysis, 1 mg versus 4 mg pitavastatin, FIG. 9): did not affect the results | reduction of LDL-C from baseline [2]: 42.9%
